# How the values were obtained:
# cyclooxygenase 2 (COX-2) = conditions: 300 μM; COX-2 from sheep placenta
# Protocol: (§1) In this experiment, nitrones of formula I were tested to determine if they inhibit the enzymes cyclooxygenase 1 (COX-1) and cyclooxygenase 2 (COX-2). The inhibition of COX-1 was measured by incubating arachidonic acid with COX-1 dervied from ram seminal vesicles. The inhibition of COX-2 was measured by incubation of arachidonic acid with COX-2 derived from sheep placenta. These assays are further described in Evans et al., Biochem. Pharmacol., 36:2035, 1987. In each assay, the formation of prostaglandin E2 (PGE2) was measured by spectrophotometric quantitation of malondialdehyde. The compounds to be tested were added to incubation solutions at a concentration of 300 μM.
# cyclooxygenase 1 (COX-1) = conditions: 300 μM; COX-1 from ram seminal vesicles
# Protocol: as §1
structure (smiles),measurement,setting,value
COc1ccc2c(c1)c(CC(=O)O)c(C)n2C(=O)c1ccc(Cl)cc1 [indomethacin],inhibition of COX-2,cyclooxygenase 2 (COX-2),completely inhibits
same,inhibition of COX-1,cyclooxygenase 1 (COX-1),completely inhibits

# — patent US6197826A, “α-(2-hydroxyphenyl) nitrone compounds, pharmaceutical compositions containing the same and methods for treating inflammation” (Centaur Pharmaceuticals, Inc., priority 1999, dated 2001)
